Source: the supplement of paper PMC10307832

Legend:
Assay in all cases: relative viability (nuclei count vs DMSO), 5 days (fraction); higher = more cells survive
[1] = compound: Cc1cnc(CNC(=O)c2c(=O)c3ccc(N4CCCN(C)CC4)nc3n3c2sc2ccccc23)cn1 [CX-5461] + CS(=O)(=O)CCNCc1ccc(-c2ccc3ncnc(Nc4ccc(OCc5cccc(F)c5)c(Cl)c4)c3c2)o1 [Lapatinib] (partner 2 µM)
Method in brief: (§1)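 Relative viability equals treated-well nuclei counts divided by vehicle-well nuclei counts. Counts came from 4× images of lung cancer cell lines grown in 1536-well plates for 5 days after pin-tool dosing on the day after seeding. Dosing used one drug alone or a fixed anchor-drug dose plus five library-drug doses (not always all listed) in √10 steps, and values are medians of duplicate plates.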

[2] = compound: O=C(Nc1cc(C(F)(F)F)cc(C(F)(F)F)c1)c1cc(Cl)ccc1O [IMD-0354] + Nc1ncn([C@H]2C[C@H](O)[C@@H](CO)O2)c(=O)n1 [Decitabine] (partner 2 µM)
Method in brief: as §1

[3] = compound: Cc1cnc(CNC(=O)c2c(=O)c3ccc(N4CCCN(C)CC4)nc3n3c2sc2ccccc23)cn1 [CX-5461] + O=C(c1cc(Cc2n[nH]c(=O)c3ccccc23)ccc1F)N1CCN(C(=O)C2CC2)CC1 [Olaparib] (partner 8 µM)
Method in brief: as §1

[4] = compound: O=C(Nc1cc(C(F)(F)F)cc(C(F)(F)F)c1)c1cc(Cl)ccc1O [IMD-0354] + Cc1cc(Nc2cc(N3CCN(C)CC3)nc(Sc3ccc(NC(=O)C4CC4)cc3)n2)n[nH]1 [Tozasertib] (partner 0.1 µM)
Method in brief: as §1

Cell Line | relative viability ([1]; first compound 0.01 µM) | relative viability ([1]; first compound 0.03162 µM) | relative viability ([1]; first compound 0.1 µM) | relative viability ([1]; first compound 0.3162 µM) | relative viability ([1]; first compound 1 µM) | relative viability ([2]; first compound 0.04 µM) | relative viability ([2]; first compound 0.1265 µM) | relative viability ([2]; first compound 0.4 µM) | relative viability ([2]; first compound 1.265 µM) | relative viability ([2]; first compound 4 µM) | relative viability ([3]; first compound 0.01 µM) | relative viability ([3]; first compound 0.03162 µM) | relative viability ([3]; first compound 0.1 µM) | relative viability ([3]; first compound 0.3162 µM) | relative viability ([3]; first compound 1 µM) | relative viability ([4]; first compound 0.04 µM) | relative viability ([4]; first compound 0.1265 µM) | relative viability ([4]; first compound 0.4 µM) | relative viability ([4]; first compound 1.265 µM) | relative viability ([4]; first compound 4 µM)
LOU-NH91 | 0.63 | 0.811 | 0.747 | 0.442 | 0.68 | 0.834 | 0.722 | 0.448 | 0.223 | 0.243 | 0.973 | 0.992 | 0.901 | 0.524 | 0.704 | 0.774 | 0.626 | 0.523 | 0.184 | 0.174
LU99A | 0.859 | 1.02 | 0.86 | 0.56 | 0.213 | 0.565 | 0.885 | 0.539 | 0.617 | 0.293 | 0.27 | 0.241 | 0.297 | 0.221 | 0.284 | 0.326 | 0.254 | 0.267 | 0.244 | 0.218
LXF-289 | 0.897 | 0.936 | 0.947 | 0.602 | 0.487 | 0.375 | 0.312 | 0.393 | 0.356 | 0.201 | 1.03 | 1.19 | 1.05 | – | 0.953 | 0.229 | 0.235 | 0.154 | 0.0929 | 0.053
NCI-H23 | 1.15 | 1.19 | 0.82 | 0.266 | 0.362 | 0.271 | 0.313 | 0.295 | 0.192 | 0.24 | 0.376 | 0.303 | 0.326 | 0.333 | 0.287 | 0.338 | 0.376 | 0.275 | 0.157 | 0.186
NCI-H322M | 0.552 | 0.564 | 0.644 | – | 0.655 | 0.747 | 0.583 | 0.617 | 0.403 | 0.404 | 0.761 | 0.773 | 0.691 | 0.5 | 0.511 | 0.469 | 0.471 | 0.387 | 0.289 | 0.359
NCI-H358 | 0.389 | 0.447 | 0.392 | 0.267 | 0.306 | 0.239 | 0.204 | 0.172 | 0.106 | 0.108 | 0.676 | 0.616 | 0.575 | 0.494 | 0.266 | 0.11 | 0.1 | 0.0993 | 0.0845 | 0.0798
NCI-H460 | 1.17 | 1.11 | 0.23 | 0.0503 | 0.0174 | 0.401 | 0.561 | 0.183 | 0.0498 | 0.0274 | 0.463 | 0.451 | 0.286 | 0.39 | 0.0729 | 0.485 | 0.35 | 0.443 | 0.127 | 0.0269
NCI-H520 | 0.782 | 0.692 | 0.784 | 0.619 | 0.491 | 0.512 | 0.462 | 0.435 | 0.158 | 0.192 | 0.309 | 0.315 | 0.261 | 0.277 | 0.184 | 0.441 | 0.379 | 0.385 | 0.347 | 0.229
NCI-H596 | 1.07 | 1.09 | 0.96 | 1.1 | 0.628 | 1.02 | 0.998 | 0.825 | 0.849 | 0.616 | 0.719 | 0.715 | 0.626 | 1.13 | 0.676 | 1.02 | 0.946 | 0.599 | 0.955 | 0.503
NCI-H647 | 1.24 | 1.1 | 1.01 | 0.949 | 0.226 | 0.381 | 0.426 | 0.237 | 0.117 | 0.106 | 0.703 | 0.721 | 0.415 | 0.552 | 0.0876 | 0.441 | 0.379 | 0.223 | 0.169 | –
NCI-H650 | 0.94 | 1.01 | 0.915 | 0.312 | 0.934 | 0.303 | 0.3 | 0.346 | 0.288 | 0.201 | 0.369 | 0.399 | 0.399 | 0.329 | 0.337 | 0.834 | 0.745 | 0.644 | 0.36 | 0.2
NCI-H661 | 0.382 | 0.533 | 0.611 | – | 0.402 | 0.567 | 0.534 | 0.389 | 0.244 | 0.233 | 0.832 | 0.754 | 0.662 | 0.602 | 0.534 | 0.319 | 0.344 | 0.34 | 0.273 | 0.257
NCI-H727 | 0.862 | 0.997 | 0.682 | 0.729 | 0.631 | 0.827 | 0.864 | 0.788 | 0.502 | 0.405 | 0.713 | 0.704 | 0.762 | 0.837 | 0.763 | 0.602 | 0.673 | 0.489 | 0.539 | 0.453
NCI-H838 | 1.17 | 1.11 | 1.05 | 0.252 | 0.6 | 0.482 | 0.443 | 0.345 | 0.243 | 0.272 | 0.863 | 0.846 | 0.726 | 0.726 | 0.476 | 0.299 | 0.286 | 0.2 | 0.191 | 0.172
NCI-H1355 | 1.03 | 0.976 | 1.15 | 0.293 | 0.785 | 0.397 | 0.373 | 0.327 | 0.274 | 0.21 | 0.758 | 0.811 | 0.689 | 0.736 | 0.714 | 0.598 | 0.528 | 0.594 | 0.271 | 0.258
NCI-H1395 | 0.955 | 0.899 | 0.716 | 0.571 | 0.563 | 0.74 | 0.645 | 0.713 | 0.358 | 0.402 | 0.457 | 0.427 | 0.443 | 0.435 | 0.456 | 0.753 | 0.721 | 0.683 | 0.453 | 0.344
